Test systems include BT-549 breast; HCT-116 colon; HT29 colon; LOX IMVI melanoma; M14 melanoma; NCI-H522 lung; RPMI-8226 leukemia; SF-539 CNS; SNB-19 CNS; U251 CNS.
Experiment in all cases: NCI anticancer screen, dose series, 48 h

From PubChem BioAssay (NCI) come the findings set out here.

Where “and” joins values, the source holds several entries; their conditions need not be identical. Identical values can stand only once.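 Step 1: Grow cells in 96-well plates. Step 2: Expose to compound for 48 hours at 5 concentrations. Step 3: Interpolate endpoints linearly; if unreached, use highest concentration. Here, GI50 denotes the concentration required for 50% inhibition of growth. TGI is the concentration that stops growth completely.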

As for `O=C(O)C1C2C=CC(O2)C1C(=O)NCc1cccnc1` (centres undefined), the TGI in the test with BT-549 breast, with HCT-116 colon, in the test on HT29 colon, in the test on LOX IMVI melanoma, in the test on M14 melanoma and in the test on NCI-H522 lung was > 100 µM in each case. The TGI with RPMI-8226 leukemia, with SF-539 CNS, with SNB-19 CNS and in the test on U251 CNS was > 100 µM each time.

Turning to `Cc1cc(S(=O)(=O)/N=C(\N)Nc2cccc(O)c2)c(SCc2ccccc2)cc1Cl`, the GI50 with BT-549 breast was 19 µM; with HCT-116 colon, 12.6 µM; in the test on HT29 colon, 20.6 µM; in the test with LOX IMVI melanoma, 20.5 µM; in the test with M14 melanoma, 11.1 µM; with NCI-H522 lung it was 13.9 µM. In addition, the GI50 with RPMI-8226 leukemia is 5.81 µM; in the test on SF-539 CNS, 18 µM; with SNB-19 CNS, 20.6 µM; in the test with U251 CNS it was 18.9 µM. Further, the TGI in the test on BT-549 breast was 39.7 µM; with HCT-116 colon, 34 µM; in the test with HT29 colon, 43.9 µM; with LOX IMVI melanoma, 66.8 µM; in the test on M14 melanoma, 26.7 µM; with NCI-H522 lung it was 41.8 µM. The TGI was > 100 µM in the test on RPMI-8226 leukemia, 38.8 µM in the test with SF-539 CNS, 58.9 µM in the test with SNB-19 CNS and 48.6 µM in the test with U251 CNS.

For the molecule `COc1ccc(C(=O)/C=C/c2sc(Cl)nc2Cl)cc1`, the GI50 in the test on BT-549 breast was 0.332 µM; in the test on HCT-116 colon it was 0.49 µM; with HT29 colon, 1.89 µM; in the test on LOX IMVI melanoma, 0.33 µM; with M14 melanoma it was 0.466 µM; with NCI-H522 lung, 0.452 µM. Besides, the GI50 in the test with RPMI-8226 leukemia is 1.36 µM; in the test with SF-539 CNS, 1.56 µM; in the test on SNB-19 CNS it was 1.99 µM; in the test on U251 CNS, 1.68 µM. Also, the TGI in the test on BT-549 breast worked out at 1.7 µM; in the test with HCT-116 colon, 1.84 µM; in the test on HT29 colon, 4.66 µM; in the test with LOX IMVI melanoma, 1.36 µM; in the test with M14 melanoma, 2.96 µM; in the test on NCI-H522 lung it was 4.85 µM. Moreover, the TGI in the test on RPMI-8226 leukemia was determined as 4.77 µM; in the test on SF-539 CNS it was 4.26 µM; in the test on SNB-19 CNS it was 4.25 µM; in the test on U251 CNS, 3.83 µM.

Consider `Cc1cccc(C(C)(C)C)c1NC(=O)C(C#N)C1=C(Cl)C(=O)c2ccccc2C1=O` (centres undefined), for which the TGI with BT-549 breast worked out at 27.5 µM; with HCT-116 colon, 27.2 µM; in the test with HT29 colon it was 40.7 µM; in the test on LOX IMVI melanoma, 30.7 µM; with M14 melanoma, 32.5 µM; in the test with NCI-H522 lung, 26.9 µM. The TGI was 49.2 µM with RPMI-8226 leukemia, 32.5 µM with SF-539 CNS, 39.1 µM in the test with SNB-19 CNS and 31.3 µM with U251 CNS.

With `Cc1cc(=O)oc2c(C3=NN(C=O)C(c4ccccc4)C3)c(O)ccc12` (centres undefined), the TGI is > 100 µM in the test on BT-549 breast; > 100 µM in the test with HCT-116 colon; > 100 µM in the test with HT29 colon; > 100 µM in the test with LOX IMVI melanoma; > 95.9 µM in the test on M14 melanoma; > 93.6 µM in the test on NCI-H522 lung. Also, the TGI is > 100 µM in the test with RPMI-8226 leukemia, > 94.4 µM in the test on SF-539 CNS, > 91.2 µM in the test on SNB-19 CNS and > 100 µM in the test on U251 CNS.

As for `C[C@@H](O)[C@@H](C)Oc1nc(Nc2ccc(S(=N)(=O)C3CC3)cc2)ncc1C(F)(F)F` (some centres undefined), the GI50 in the test with BT-549 breast was 0.0274 µM; with HCT-116 colon it was 0.0228 µM; with HT29 colon it was 0.033 µM; in the test with LOX IMVI melanoma, 0.0178 µM; in the test on M14 melanoma, 0.0349 µM; in the test with NCI-H522 lung, 0.0328 µM. Further, the GI50 in the test with RPMI-8226 leukemia is 0.0226 µM; with SF-539 CNS it was 0.0162 µM; with SNB-19 CNS it was 0.0309 µM; with U251 CNS it was 0.0252 µM. The TGI was 0.182 µM with BT-549 breast; > 100 µM in the test with HCT-116 colon; 10.7 µM in the test with LOX IMVI melanoma; 0.316 µM in the test on M14 melanoma; 0.81 µM in the test on NCI-H522 lung; 0.0586 µM in the test on RPMI-8226 leukemia. In addition, the TGI was 0.0384 µM in the test on SF-539 CNS, 43 µM in the test with SNB-19 CNS and 13.2 µM in the test on U251 CNS.

In the case of `COc1cc2c(Oc3ccc(NC(=O)C4(C(=O)Nc5ccc(F)cc5)CC4)cc3F)ccnc2cc1OCCCN1CCOCC1`, the GI50 in the test on BT-549 breast is 1.82 µM and 2.78 µM; in the test with HCT-116 colon it was 0.609 µM and 0.586 µM; in the test on HT29 colon it was 0.387 µM; in the test with LOX IMVI melanoma, 0.713 µM; in the test with M14 melanoma, 0.479 µM and 0.54 µM; in the test on NCI-H522 lung, 0.983 µM. The GI50 in the test with RPMI-8226 leukemia was 2.02 µM and 1.68 µM; with SF-539 CNS, 0.288 µM and 0.456 µM; with SNB-19 CNS, 1.99 µM and 2.14 µM; in the test on U251 CNS, 1.42 µM. In addition, the TGI is 3.93 µM and > 9.51 µM in the test on BT-549 breast; 2.02 µM and 2.06 µM in the test on HCT-116 colon; 1.8 µM in the test with HT29 colon; 1.95 µM in the test with LOX IMVI melanoma; 1.83 µM and 1.96 µM with M14 melanoma; 2.87 µM in the test with NCI-H522 lung. Also, the TGI in the test on RPMI-8226 leukemia is 5.02 µM and 7.07 µM; in the test with SF-539 CNS it was 1.65 µM and 1.67 µM; with SNB-19 CNS, 5.77 µM and > 10 µM; in the test on U251 CNS, 3.32 µM.

`Cc1nnc(C[C@@H]2C=C(c3ccc(Cl)cc3)c3ccccc3-n3c(C)nnc32)o1`: the GI50 was 1.48 µM in the test with BT-549 breast; 0.472 µM with HCT-116 colon; 0.241 µM with HT29 colon; 0.4 µM with LOX IMVI melanoma; 0.529 µM in the test with M14 melanoma; 0.578 µM with NCI-H522 lung. Besides, the GI50 with RPMI-8226 leukemia is 0.135 µM; in the test with SF-539 CNS, 1.16 µM; with SNB-19 CNS it was 5.53 µM; in the test on U251 CNS, 4.81 µM. For the same molecule, the TGI was 29.2 µM with BT-549 breast; 31.9 µM in the test on HCT-116 colon; > 100 µM in the test with HT29 colon; 16 µM in the test with LOX IMVI melanoma; 56.7 µM with M14 melanoma; 32.4 µM with NCI-H522 lung. Also, the TGI is 19.8 µM in the test with RPMI-8226 leukemia, 54.3 µM with SF-539 CNS, > 100 µM in the test with SNB-19 CNS and > 76.1 µM in the test with U251 CNS.
